Measurements published in ChEMBL document CHEMBL2028040, “Malaria Box”.

Legend:
Plasmodium falciparum [1] = test: MMV: Inhibition of Plasmodium falciparum 3D7 at 5uM compound concentration.; type: functional
Plasmodium falciparum [2] = test: MMV: Inhibition of Plasmodium falciparum 3D7 (EC50).; type: functional, organism-based
Plasmodium falciparum [3] = test: MMV: Inhibition of Plasmodium falciparum K1 (EC50).; type: functional, organism-based
Trypanosoma cruzi = test: MMV: Inhibition of Trypanosoma cruzi (Tulahuen C4 LacZ) (Chagas in vitro).; type: functional, organism-based
[4] = test system: Trypanosoma brucei brucei; test: MMV: Inhibition of Trypanosoma brucei brucei (Squib 427) (HAT in vitro).; type: functional, organism-based
[5] = test system: Trypanosoma brucei rhodesiense; test: MMV: Inhibition of Trypanosoma brucei rhodesiense (STIB 900) (HAT in vitro).; type: functional, organism-based
Leishmania infantum = test: MMV: Inhibition of Leishmania infantum (MHOM/MA/BE/67) in vitro.; type: functional, organism-based
[6] = MMV: Cytotoxicity against human fibroblasts (MRC-5) cells.; conditions: MRC-5 cells (human fibroblasts)

SMILES	inhibition at 5 µM (Plasmodium falciparum [1])	EC50 (Plasmodium falciparum [2])	EC50 (Plasmodium falciparum [3])	IC50 (Trypanosoma cruzi)	IC50 [4]	IC50 [5]	IC50 (Leishmania infantum)	IC50 [6]
COc1cccc(C=Cc2nc(=O)c3ccccc3o2)c1OC	96%	0.0238 µM	0.0362 µM	> 32 µM	> 32 µM	17.5 µM	> 32 µM	> 32 µM
Cc1ccc(-c2cc3nc4c(c(O)n3n2)CCCC4)cc1	73%	0.396 µM	1.12 µM	> 32 µM	15.5 µM	3.73 µM	> 32 µM	> 32 µM
Brc1ccc(Nc2nc3ccccc3nc2Nc2ccc(Br)cc2)cc1	98%	1.06 µM	0.497 µM	3.52 µM	4.09 µM	1.32 µM	4.06 µM	5.88 µM
CCOc1cc2c(cc1OCC)C(c1cc(Cl)ccc1O)NCC2 (stereo not drawn)	98%	0.746 µM	0.206 µM	> 32 µM	3 µM	1.3 µM	> 32 µM	> 32 µM
CSC1=NC(=Nc2c(C)cccc2C)C2(CCC(C(C)(C)C)CC2)N1c1ccc(Cl)cc1 (stereo not drawn)	96%	0.135 µM	0.172 µM	15.4 µM	16.1 µM	15.3 µM	16.2 µM	> 32 µM
COc1ccc(C2=C(c3ccc(OC)cc3)C3(c4ccccc4)C(=O)C2(c2ccccc2)C2C(=O)N(c4ccc(C)cc4)C(=O)C23)cc1 (stereo not drawn)	98%	0.148 µM	0.188 µM	> 32 µM	> 32 µM	> 32 µM	> 32 µM	> 32 µM
CCOC(=O)C1CCN(C(=O)CN2C(=O)c3ccccc3C2c2c[nH]c3ccccc23)CC1 (stereo not drawn)	98%	1.18 µM	2.67 µM	14.7 µM	16.1 µM	13.8 µM	> 32 µM	> 32 µM
COc1ccc(CN2CCN(Cc3ccccc3)CC2)c(O)c1	96%	1.08 µM	0.789 µM	> 32 µM	> 32 µM	> 32 µM	> 32 µM	> 32 µM
COc1ccc(C=C2SC(=N)N(c3ccccc3OC)C2=O)cc1	97%	0.168 µM	0.687 µM	11.6 µM	13.7 µM	13.9 µM	16.1 µM	4.49 µM
c1ccc2c(NCCCCCCNc3c4c(nc5ccccc35)CCCC4)c3c(nc2c1)CCCC3	100%	0.376 µM	1.35 µM	1.19 µM	1.02 µM	0.794 µM	1.01 µM	4.06 µM
CC(=O)c1sc(NC(=O)Nc2ccc(C)cc2C)nc1C	64%	0.536 µM	0.502 µM	> 32 µM	> 32 µM	> 32 µM	> 32 µM	> 32 µM
CCOc1c(Br)cc(C2C(C(=O)OC)=CN(C)C=C2C(=O)OC)cc1OC	96%	0.512 µM	1.07 µM	> 32 µM	> 32 µM	30.9 µM	> 32 µM	> 32 µM
CC1CCCCN1CCCNC(=O)c1ccc2c(c1)sc1nc(-c3ccc(F)cc3)cn12 (stereo not drawn)	98%	0.648 µM	1.13 µM	4.14 µM	3.79 µM	1.19 µM	1.08 µM	10.4 µM
CC(C)(C)c1ccc(O)c(CNC2CCCCC2)c1	96%	0.161 µM	0.0458 µM	21.2 µM	3.78 µM	4 µM	16 µM	> 32 µM
CN(C)c1ccc(C(O)(c2ccc(N(C)C)cc2)c2ccc(N(C)C)cc2)cc1 [METHYLROSANILINE]	96%	0.255 µM	0.5 µM	< 0.125 µM	< 0.125 µM	< 0.125 µM	< 0.125 µM	0.354 µM
OC(CNCc1ccccc1)Cn1c2ccccc2c2ccccc21 (stereo not drawn)	95%	1.08 µM	0.86 µM	4.32 µM	0.851 µM	0.252 µM	4 µM	16.1 µM
CN1CCN(c2ccc(Nc3c4ccccc4nc4ccccc34)cc2)CC1	97%	0.142 µM	0.487 µM	1 µM	1.03 µM	0.311 µM	4.06 µM	10.9 µM
Oc1ccccc1CNCC12CC3CC(CC(C3)C1)C2	96%	0.0226 µM	0.0068 µM	> 32 µM	15.7 µM	16 µM	17.3 µM	> 32 µM
COc1cc2c3cc1Oc1c(OC)c(OC)cc4c1C(Cc1ccc(O)c(c1)Oc1ccc(cc1)CC3N(C)CC2)N(C)CC4 (stereo not drawn)	96%	1.27 µM	1.19 µM	3.67 µM	14.5 µM	4.59 µM	12 µM	4.42 µM
CCCCOC(=O)c1ccc(Nc2cc(C)nc3ccc(OC)cc23)cc1	99%	0.584 µM	2.14 µM	3.67 µM	3.94 µM	3.51 µM	4.76 µM	14.3 µM
c1ccc(/C2=N/c3ccccc3/N=C(/c3ccccc3)c3ccccc32)cc1	99%	0.661 µM	1.1 µM	26.1 µM	16.5 µM	4.52 µM	16.6 µM	> 32 µM
CNCCCNc1ccnc2cc(Cl)ccc12	98%	0.0822 µM	1 µM	16.5 µM	3.82 µM	3.92 µM	16.2 µM	> 32 µM
Oc1ccccc1CN1CCC2(CCCN(Cc3ccccc3F)C2)C1 (stereo not drawn)	98%	0.548 µM	0.268 µM	14 µM	14.8 µM	15.8 µM	16 µM	> 32 µM
N=c1n(CCN2CCCCC2)c2ccccc2n1CC(O)c1cccc(Br)c1 (stereo not drawn)	98%	0.893 µM	1.4 µM	4.17 µM	2.77 µM	1.01 µM	4 µM	27.6 µM
COc1ccccc1NC1=C(N2CCCCC2)C(=O)c2ccccc2C1=O	98%	0.0053 µM	0.01 µM	< 0.125 µM	1.01 µM	0.315 µM	3.01 µM	9.88 µM
CCOC(=O)c1cnc2c(C)cccc2c1Nc1ccc(C(C)=O)cc1	94%	0.314 µM	0.712 µM	> 32 µM	> 32 µM	> 32 µM	> 32 µM	> 32 µM
